Results taken from ChEMBL document CHEMBL4396974, “Synthesis and evaluation of a novel quinoline-triazole analogs for antitubercular properties via molecular hybridization approach” (Bioorg Med Chem Lett, 2019).
Converted amounts (≈) assume the structure as drawn. The source made the active and inactive calls. No cut-off for these calls is given here.

tested on: Mycobacterium tuberculosis variant bovis; test: Antimycobacterial activity against Mycobacterium bovis assessed as 90 percent growth inhibition measured after 120 hrs by turbidometric analysis; type: functional

Structure (SMILES) | MIC90
COc1nc2ccc(Br)cc2cc1C(c1ccccc1)n1cc(CO)nn1 (configuration not stated) | 131 µM (≈ 55.7 µg/mL)
CO[C@H]1/C=C/O[C@@]2(C)Oc3c(C)c(O)c4c(O)c(c(/C=N/N5CCN(C)CC5)c(O)c4c3C2=O)NC(=O)/C(C)=C\C=C\[C@H](C)[C@H](O)[C@@H](C)[C@@H](O)[C@@H](C)[C@H](OC(C)=O)[C@@H]1C [RIFAMPIN] | 2.2 µM (≈ 1.81 µg/mL)
COc1nc2ccc(Br)cc2cc1C(c1ccccc1)n1cc(CCCCCO)nn1 (configuration not stated) | 59.6 µM (≈ 28.7 µg/mL)
COc1nc2ccc(Br)cc2cc1C(c1ccccc1)n1cc(-c2ccccc2F)nn1 (configuration not stated) | inactive
COc1nc2ccc(Br)cc2cc1C(c1ccccc1)n1cc(C2CC2)nn1 (configuration not stated) | inactive
COc1nc2ccc(Br)cc2cc1C(c1ccccc1)n1cc(-c2ccccc2)nn1 (configuration not stated) | 161 µM (≈ 75.7 µg/mL)
CCCCc1cn(C(c2ccccc2)c2cc3cc(Br)ccc3nc2OC)nn1 (configuration not stated) | 50.2 µM (≈ 22.7 µg/mL)
CCCCCCc1cn(C(c2ccccc2)c2cc3cc(Br)ccc3nc2OC)nn1 (configuration not stated) | 44.4 µM (≈ 21.3 µg/mL)
COc1nc2ccc(Br)cc2cc1C(c1ccccc1)n1cc(-c2ccccc2C(F)(F)F)nn1 (configuration not stated) | 174 µM (≈ 93.8 µg/mL)
CCCCCc1cn(C(c2ccccc2)c2cc3cc(Br)ccc3nc2OC)nn1 (configuration not stated) | 80.9 µM (≈ 37.7 µg/mL)
CCOC(=O)c1cn(C(c2ccccc2)c2cc3cc(Br)ccc3nc2OC)nn1 (configuration not stated) | inactive
COc1nc2ccc(Br)cc2cc1C(c1ccccc1)n1cc(-c2ccc(F)cc2)nn1 (configuration not stated) | inactive
COc1nc2ccc(Br)cc2cc1[C@@H](c1ccccc1)[C@@](O)(CCN(C)C)c1cccc2ccccc12 [BEDAQUILINE] | 0.15 µM (≈ 0.0833 µg/mL)
COc1nc2ccc(Br)cc2cc1C(c1ccccc1)n1cc(CCO)nn1 (configuration not stated) | 133 µM (≈ 58.3 µg/mL)
CCCCCCCCc1cn(C(c2ccccc2)c2cc3cc(Br)ccc3nc2OC)nn1 (configuration not stated) | 34.9 µM (≈ 17.7 µg/mL)
CCCc1cn(C(c2ccccc2)c2cc3cc(Br)ccc3nc2OC)nn1 (configuration not stated) | 45.2 µM (≈ 19.8 µg/mL)
CCCCCCCc1cn(C(c2ccccc2)c2cc3cc(Br)ccc3nc2OC)nn1 (configuration not stated) | 71.9 µM (≈ 35.5 µg/mL)
NNC(=O)c1ccncc1 [ISONIAZID] | 12.5 µM (≈ 1.72 µg/mL)
COc1nc2ccc(Br)cc2cc1C(c1ccccc1)n1cc(-c2ccc(Br)cc2)nn1 (configuration not stated) | 49 µM (≈ 27 µg/mL)
COc1nc2ccc(Br)cc2cc1C(c1ccccc1)n1cc(-c2cccc(F)c2)nn1 (configuration not stated) | 31.4 µM (≈ 15.3 µg/mL)
COc1nc2ccc(Br)cc2cc1C(c1ccccc1)n1cc(-c2ccc(OC(F)(F)F)cc2)nn1 (configuration not stated) | 41 µM (≈ 22.8 µg/mL)
COc1nc2ccc(Br)cc2cc1C(c1ccccc1)n1cc(CCCO)nn1 (configuration not stated) | inactive
